Assay results taken from PubChem BioAssay AID1963982 (Molecular Pharmacology Branch, DTP, NCI, 2024).
Blank lines part the entries; values can stand above or below the molecule they belong to.

Test system: 313798-341-R-J2-PDC spheroids, viability
Test: Anticancer human tumor 313798-341-R-J2-PDC patient-derived cervical squamous cell carcinoma cell line growth inhibition [PI3K]
Conditions: spheroids with HUVEC and MSC; for IC50: curve of first compound; for viability, T/C: stronger effect = lower value
Summary of the method: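 Spheroid viability read-out. Co-cultures contained the tumor line plus HUVEC and human MSCs. Each agent was paired with a PI3K inhibitor (inavolisib, alpelisib, duvelisib, copanlisib) across half-log dilutions starting at clinical Cmax, or at 10 microM when Cmax was unknown.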

[1] = second compound 0.00316 µM, first compound 0.0316 µM
[2] = second compound 0.00316 µM, first compound 0.1 µM
[3] = second compound 0.00316 µM, first compound 0.316 µM
[4] = second compound 0.00316 µM, first compound 1 µM
[5] = second compound 0.00316 µM, first compound 3.16 µM
[6] = second compound 0.00316 µM, first compound 10 µM
[7] = second compound 0.01 µM, first compound 0.0316 µM
[8] = second compound 0.01 µM, first compound 0.1 µM
[9] = second compound 0.01 µM, first compound 0.316 µM
[10] = second compound 0.01 µM, first compound 1 µM
[11] = second compound 0.01 µM, first compound 3.16 µM
[12] = second compound 0.01 µM, first compound 10 µM
[13] = second compound 0.0316 µM, first compound 0.0316 µM
[14] = second compound 0.0316 µM, first compound 0.1 µM
[15] = second compound 0.0316 µM, first compound 0.316 µM
[16] = second compound 0.0316 µM, first compound 1 µM
[17] = second compound 0.0316 µM, first compound 3.16 µM
[18] = second compound 0.0316 µM, first compound 10 µM
[19] = second compound 0.1 µM, first compound 0.0316 µM
[20] = second compound 0.1 µM, first compound 0.1 µM
[21] = second compound 0.1 µM, first compound 0.316 µM
[22] = second compound 0.1 µM, first compound 1 µM
[23] = second compound 0.1 µM, first compound 3.16 µM
[24] = second compound 0.1 µM, first compound 10 µM
[25] = second compound 0.316 µM, first compound 0.0316 µM
[26] = second compound 0.316 µM, first compound 0.1 µM
[27] = second compound 0.316 µM, first compound 0.316 µM
[28] = second compound 0.316 µM, first compound 1 µM
[29] = second compound 0.316 µM, first compound 3.16 µM
[30] = second compound 0.316 µM, first compound 10 µM
[31] = second compound 1 µM, first compound 0.0316 µM
[32] = second compound 1 µM, first compound 0.1 µM
[33] = second compound 1 µM, first compound 0.316 µM
[34] = second compound 1 µM, first compound 1 µM
[35] = second compound 1 µM, first compound 3.16 µM
[36] = second compound 1 µM, first compound 10 µM
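Further: spheroids exposed to compounds for seven days.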
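Wherever viability, T/C is given: 100% = DMSO vehicle control viability.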

IC50 (second compound 0.00316 µM): > 10 µM
IC50 (second compound 0.01 µM): > 10 µM
IC50 (second compound 0.0316 µM): > 10 µM
IC50 (second compound 0.1 µM): < 0.0316 µM
IC50 (second compound 0.316 µM): < 0.0316 µM
IC50 (second compound 1 µM): < 0.0316 µM
SMILES: C#Cc1c(F)ccc2cc(O)cc(-c3ncc4c(N5CC6CCC(C5)N6)nc(OCC56CCCN5CC(F)C6)nc4c3F)c12 (stereo unspecified) + COc1c(OCCCN2CCOCC2)ccc2c3n(c(=NC(=O)c4cnc(N)nc4)nc12)CCN3
viability, T/C [1]: 107%
viability, T/C [2]: 103%
viability, T/C [3]: 107%
viability, T/C [4]: 110%
viability, T/C [5]: 108%
viability, T/C [6]: 100%
viability, T/C [7]: 93.6%
viability, T/C [8]: 106%
viability, T/C [9]: 105%
viability, T/C [10]: 108%
viability, T/C [11]: 98.7%
viability, T/C [12]: 102%
viability, T/C [13]: 70.2%
viability, T/C [14]: 83.3%
viability, T/C [15]: 96.8%
viability, T/C [16]: 78.7%
viability, T/C [17]: 72.7%
viability, T/C [18]: 77.2%
viability, T/C [19]: 40.1%
viability, T/C [20]: 47.7%
viability, T/C [21]: 45.1%
viability, T/C [22]: 42.1%
viability, T/C [23]: 39.5%
viability, T/C [24]: 32.6%
viability, T/C [25]: 17.8%
viability, T/C [26]: 18.2%
viability, T/C [27]: 16.7%
viability, T/C [28]: 13.4%
viability, T/C [29]: 15.3%
viability, T/C [30]: 6.87%
viability, T/C [31]: 9.9%
viability, T/C [32]: 13.1%
viability, T/C [33]: 12.1%
viability, T/C [34]: 11.2%
viability, T/C [35]: 8.79%
viability, T/C [36]: 4.83%

IC50 (second compound 0.00316 µM): > 10 µM
IC50 (second compound 0.01 µM): > 10 µM
IC50 (second compound 0.0316 µM): > 10 µM
IC50 (second compound 0.1 µM): < 0.0316 µM
IC50 (second compound 0.316 µM): < 0.0316 µM
IC50 (second compound 1 µM): < 0.0316 µM
SMILES: C=CC(=O)N1CCN(c2nc(=O)n(-c3c(C)ccnc3C(C)C)c3nc(-c4c(O)cccc4F)c(F)cc23)C(C)C1 (stereo unspecified) + COc1c(OCCCN2CCOCC2)ccc2c3n(c(=NC(=O)c4cnc(N)nc4)nc12)CCN3
viability, T/C [1]: 98.3%
viability, T/C [2]: 103%
viability, T/C [3]: 106%
viability, T/C [4]: 96.1%
viability, T/C [5]: 101%
viability, T/C [6]: 106%
viability, T/C [7]: 92%
viability, T/C [8]: 99.4%
viability, T/C [9]: 106%
viability, T/C [10]: 112%
viability, T/C [11]: 112%
viability, T/C [12]: 96.5%
viability, T/C [13]: 70.6%
viability, T/C [14]: 80.3%
viability, T/C [15]: 91.4%
viability, T/C [16]: 90.4%
viability, T/C [17]: 83.6%
viability, T/C [18]: 82.9%
viability, T/C [19]: 44.8%
viability, T/C [20]: 48.9%
viability, T/C [21]: 52.1%
viability, T/C [22]: 48.7%
viability, T/C [23]: 50.1%
viability, T/C [24]: 42.9%
viability, T/C [25]: 16.8%
viability, T/C [26]: 17.9%
viability, T/C [27]: 15.4%
viability, T/C [28]: 18.2%
viability, T/C [29]: 19.1%
viability, T/C [30]: 13.5%
viability, T/C [31]: 12%
viability, T/C [32]: 12.6%
viability, T/C [33]: 12.8%
viability, T/C [34]: 13.7%
viability, T/C [35]: 14.6%
viability, T/C [36]: 10.2%

IC50 (second compound 0.00316 µM): < 0.0316 µM
IC50 (second compound 0.01 µM): < 0.0316 µM
IC50 (second compound 0.0316 µM): < 0.0316 µM
IC50 (second compound 0.1 µM): < 0.0316 µM
IC50 (second compound 0.316 µM): < 0.0316 µM
IC50 (second compound 1 µM): < 0.0316 µM
SMILES: CC1(C)CCC(Nc2ncc(C(F)(F)F)c(-c3c[nH]c4c(P(C)(C)=O)c(C#N)ccc34)n2)CN1 (stereo unspecified) + COc1c(OCCCN2CCOCC2)ccc2c3n(c(=NC(=O)c4cnc(N)nc4)nc12)CCN3
viability, T/C [1]: 44.6%
viability, T/C [2]: 42.3%
viability, T/C [3]: 39.7%
viability, T/C [4]: 43.9%
viability, T/C [5]: 45.4%
viability, T/C [6]: 33.7%
viability, T/C [7]: 39.6%
viability, T/C [8]: 34.7%
viability, T/C [9]: 36.8%
viability, T/C [10]: 38.1%
viability, T/C [11]: 43.1%
viability, T/C [12]: 29.1%
viability, T/C [13]: 27.4%
viability, T/C [14]: 27.9%
viability, T/C [15]: 27.4%
viability, T/C [16]: 27.9%
viability, T/C [17]: 26.5%
viability, T/C [18]: 16.5%
viability, T/C [19]: 18.9%
viability, T/C [20]: 21.1%
viability, T/C [21]: 20%
viability, T/C [22]: 20.2%
viability, T/C [23]: 21.5%
viability, T/C [24]: 3.93%
viability, T/C [25]: 12.2%
viability, T/C [26]: 11.7%
viability, T/C [27]: 12.2%
viability, T/C [28]: 12%
viability, T/C [29]: 8.87%
viability, T/C [30]: 1.12%
viability, T/C [31]: 9.94%
viability, T/C [32]: 9.34%
viability, T/C [33]: 7.8%
viability, T/C [34]: 7.89%
viability, T/C [35]: 5.87%
viability, T/C [36]: 1.15%
